According to patent publication US6914045B2, “Glycopeptide antibiotics” (Wyeth Holdings Corporation, priority 2001, dated 2005):
In brackets after ≈: the same amount, converted by molar mass.

Key:
Test in all cases: in vitro antibacterial evaluation, MIC by broth dilution
Type in all cases: cell-based
Settings in all cases: broth dilution, 18 hours at 35° C.
[1] = test system: Streptococcus sp.
In short: (§1)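 Read-out: the lowest concentration at which the test strain fails to grow. Serial dilutions (64-0.06 μg/mL) in Muller-Hinton II […], 5×10^5 CFU/mL inoculum, NCCLS M7-A2 procedure.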

[2] = test system: Enterococcus sp.
In short: as §1

[3] = test system: Staphylococcus sp.
In short: as §1

[4] = test system: Escherichia coli
In short: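 Broth dilution MIC per NCCLS M7-A2 in Mueller-Hinton II medium, inoculum 5×10^5 CFU/mL, antibiotic range 64-0.06 μg/mL. MIC taken as lowest concentration inhibiting growth.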

Question: How did the “MIC Streptococcus pneumoniae (ATCC 6301)” value ([1]; strain ATCC 6301) turn out when `CC(c1ccccc1)C1NC(=O)CNC(=O)C(CO)NC(=O)C(C(O)C2CNC(=N)N2C2OC(CO)C(O)C(O)C2O)NC(=O)C(C(O)C2CNC(=N)N2)NC(=O)C(Cc2ccc3oc(-c4ccc(OCc5ccccc5)cc4)nc3c2)NC1=O` (stereo not drawn) [Example 31, Cyclo[3-[2-[4-(phenylmethoxy)phenyl]-1,3-benzoxazol-5-yl]alanyl-3-(2-iminoimidazolidin-4-yl)seryl-3-(3-hexopyranosyl-2-iminoimidazolidin-4-yl)serylserylglycyl-β-methyl-phenylalanyl]] was run?
Answer: 16 µg/mL (≈ 13.6 µM)

Question: And the “MIC Streptococcus pneumoniae (GC 1894)” value ([1]; strain GC 1894)?
Answer: 32 µg/mL (≈ 27.2 µM)

Question: And the “MIC Streptococcus pyogenes (GC 4563)” value ([1]; strain GC 4563)?
Answer: 8 µg/mL (≈ 6.79 µM)

Question: And the “MIC Streptococcus agalactiae (GC 4564)” value ([1]; strain GC 4564)?
Answer: 32 µg/mL (≈ 27.2 µM)

Question: And the “MIC Streptococcus pneumoniae (GC 4565)” value ([1]; strain GC 4565)?
Answer: 64 µg/mL (≈ 54.3 µM)

Question: And the “MIC Enterococcus faecalis (ATCC 29212)” value ([2]; strain ATCC 29212)?
Answer: 64 µg/mL (≈ 54.3 µM)

Question: And the “MIC Enterococcus faecalis (GC 2242)” value ([2]; strain GC 2242)?
Answer: 64 µg/mL (≈ 54.3 µM)

Question: What about the “MIC Enterococcus faecium (GC 2243)” value ([2]; strain GC 2243) of the same compound?
Answer: 32 µg/mL (≈ 27.2 µM)

Question: And the “MIC Enterococcus faecalis (GC 2691)” value ([2]; strain GC 2691)?
Answer: 64 µg/mL (≈ 54.3 µM)

Question: What about the “MIC Enterococcus faecalis (GC 3059)” value ([2]; strain GC 3059) of the same compound?
Answer: 128 µg/mL (≈ 109 µM)

Question: And the “MIC Enterococcus faecalis (GC 4552)” value ([2]; strain GC 4552)?
Answer: 128 µg/mL (≈ 109 µM)

Question: And the “MIC Enterococcus faecalis (GC 4553)” value ([2]; strain GC 4553)?
Answer: 16 µg/mL (≈ 13.6 µM)

Question: And the “MIC Enterococcus faecalis (GC 4554)” value ([2]; strain GC 4554)?
Answer: 128 µg/mL (≈ 109 µM)

Question: What about the “MIC Enterococcus faecium (GC 4556)” value ([2]; strain GC 4556) of the same compound?
Answer: 4 µg/mL (≈ 3.39 µM)

Question: And the “MIC Enterococcus faecium (GC 4557)” value ([2]; strain GC 4557)?
Answer: 4 µg/mL (≈ 3.39 µM)

Question: And the “MIC Enterococcus avium (GC 4558)” value ([2]; strain GC 4558)?
Answer: 8 µg/mL (≈ 6.79 µM)

Question: What about the “MIC Enterococcus faecalis (GC 6189)” value ([2]; strain GC 6189) of the same compound?
Answer: 64 µg/mL (≈ 54.3 µM)

Question: What about the “MIC Staphylococcus aureus (ATCC 29213)” value ([3]; strain ATCC 29213) of the same compound?
Answer: 16 µg/mL (≈ 13.6 µM)

Question: What about the “MIC Staphylococcus aureus (GC 1131)” value ([3]; strain GC 1131) of the same compound?
Answer: 16 µg/mL (≈ 13.6 µM)

Question: And the “MIC Staphylococcus aureus (GC 3051)” value ([3]; strain GC 3051)?
Answer: 16 µg/mL (≈ 13.6 µM)

Question: And the “MIC Staphylococcus aureus (GC 3053)” value ([3]; strain GC 3053)?
Answer: 16 µg/mL (≈ 13.6 µM)

Question: And the “MIC Staphylococcus aureus (GC 4541)” value ([3]; strain GC 4541)?
Answer: 16 µg/mL (≈ 13.6 µM)

Question: And the “MIC Staphylococcus aureus (GC 4542)” value ([3]; strain GC 4542)?
Answer: 8 µg/mL (≈ 6.79 µM)

Question: What about the “MIC Staphylococcus aureus-SMITH (GC 4543)” value ([3]; strain GC 4543) of the same compound?
Answer: 16 µg/mL (≈ 13.6 µM)

Question: And the “MIC Staphylococcus aureus (GC 4544)” value ([3]; strain GC 4544)?
Answer: 16 µg/mL (≈ 13.6 µM)

Question: And the “MIC Staphylococcus aureus (GC 4545)” value ([3]; strain GC 4545)?
Answer: 16 µg/mL (≈ 13.6 µM)

Question: What about the “MIC Staphylococcus haemolyticus (GC 4546)” value ([3]; strain GC 4546) of the same compound?
Answer: 8 µg/mL (≈ 6.79 µM)

Question: What about the “MIC Coagulase Negative Staphylococcus (GC 4547)” value ([3]; strain GC 4547) of the same compound?
Answer: 8 µg/mL (≈ 6.79 µM)

Question: What about the “MIC Coagulase Negative Staphylococcus (GC 4548)” value ([3]; strain GC 4548) of the same compound?
Answer: 8 µg/mL (≈ 6.79 µM)

Question: And the “MIC Coagulase Negative Staphylococcus (GC 4549)” value ([3]; strain GC 4549)?
Answer: 16 µg/mL (≈ 13.6 µM)

Question: What about the “MIC Coagulase Negative Staphylococcus (GC 4551)” value ([3]; strain GC 4551) of the same compound?
Answer: 16 µg/mL (≈ 13.6 µM)

Question: What about the “MIC Coagulase Negative Staphylococcus (GC 6257)” value ([3]; strain GC 6257) of the same compound?
Answer: 4 µg/mL (≈ 3.39 µM)

Question: What about the “MIC Escherichia coli (ATCC 25922)” value ([4]; strain ATCC 25922) of the same compound?
Answer: >128 µg/mL

Question: And the “MIC Escherichia coli (GC 4559)” value ([4]; strain GC 4559)?
Answer: >128 µg/mL

Question: What about the “MIC Escherichia coli (GC 4560)” value ([4]; strain GC 4560) of the same compound?
Answer: 32 µg/mL (≈ 27.2 µM)
